According to US10532066B2, “Surfactant lipids, compositions thereof, and uses thereof” (National Jewish Health, priority 2007, dated 2020):

How the values were obtained:
Assay type in all cases: cell-based
TLR1 = target: T1, TLR1 (Homo sapiens, UniProt Q15399); assay: TLR agonist IL-8 production in BEAS2B epithelial cells, TLR1; design: endogenous in cells; host or cells: BEAS2B; conditions: Pam3Cys, 48 h
T1 sequence (Q15399 25-786): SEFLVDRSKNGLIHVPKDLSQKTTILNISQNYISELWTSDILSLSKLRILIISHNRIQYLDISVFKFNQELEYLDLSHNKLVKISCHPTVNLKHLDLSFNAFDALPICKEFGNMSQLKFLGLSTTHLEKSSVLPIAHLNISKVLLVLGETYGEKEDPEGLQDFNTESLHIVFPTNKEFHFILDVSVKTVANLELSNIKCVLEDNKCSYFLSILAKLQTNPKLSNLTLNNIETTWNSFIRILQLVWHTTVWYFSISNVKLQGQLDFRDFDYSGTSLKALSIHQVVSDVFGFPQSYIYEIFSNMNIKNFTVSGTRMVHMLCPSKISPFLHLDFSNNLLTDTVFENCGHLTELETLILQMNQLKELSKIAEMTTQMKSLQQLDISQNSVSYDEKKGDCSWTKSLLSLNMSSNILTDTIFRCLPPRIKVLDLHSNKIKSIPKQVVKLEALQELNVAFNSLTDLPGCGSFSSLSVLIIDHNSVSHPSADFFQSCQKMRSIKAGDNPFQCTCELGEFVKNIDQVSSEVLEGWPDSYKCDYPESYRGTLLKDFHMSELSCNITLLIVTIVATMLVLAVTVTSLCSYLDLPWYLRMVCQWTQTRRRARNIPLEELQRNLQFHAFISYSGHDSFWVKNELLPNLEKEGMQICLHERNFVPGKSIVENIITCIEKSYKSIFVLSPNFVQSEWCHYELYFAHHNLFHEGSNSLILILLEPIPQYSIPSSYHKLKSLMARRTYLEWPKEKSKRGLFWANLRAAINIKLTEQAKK
Procedure: (§1) In this experiment, multiple TLRs were stimulated with defined TLR agonists for 48 h, and the IL-8 production was measured. In each case, the maximal stimulation by agonist is set at 100% and the antagonism by POPG or PI is expressed as the relative % response. The Controls consist of no treatment, or treatment with POPG, or phosphatidylcholine (POPC), or phosphatidylinositol (PI), in the absence of agonist as indicated. The agonists for the TLRs consist of Pam3Cys for TLR1/2, Mycoplasma pneumoniae membranes as an agonist for TLR2, Mycoplasma fermentans derived MALP2 as an agonist for TLR 2/6, double stranded RNA (poly IC) for TLR3, and bacterial flagellin (Fla) as an agonist for TLR5.
(§2) Monolayers of BEAS2B cells were challenged with the TLR1/2 agonist, Pam3Cys (25 ug/ml); the TLR 2/6 agonist MALP2 (10 ng/ml); the TLR2 agonist mycoplasma membrane (Mem) (1 ug/ml); the TLR3 agonist, poly I:C (0.1 ug/ml); and the TLR5 agonist, flagellin (100 ng/ml). For each agonist parallel incubations were performed containing 200 ug/ml POPG as liposomes, or 200 ug/ml POPG as nanodises as indicated.

TLR3 = target: T2, TLR3 (Homo sapiens, UniProt O15455); assay: TLR agonist IL-8 production in BEAS2B epithelial cells, TLR3; design: endogenous in cells; host or cells: BEAS2B; conditions: poly IC, 48 h
T2 sequence (O15455 24-904): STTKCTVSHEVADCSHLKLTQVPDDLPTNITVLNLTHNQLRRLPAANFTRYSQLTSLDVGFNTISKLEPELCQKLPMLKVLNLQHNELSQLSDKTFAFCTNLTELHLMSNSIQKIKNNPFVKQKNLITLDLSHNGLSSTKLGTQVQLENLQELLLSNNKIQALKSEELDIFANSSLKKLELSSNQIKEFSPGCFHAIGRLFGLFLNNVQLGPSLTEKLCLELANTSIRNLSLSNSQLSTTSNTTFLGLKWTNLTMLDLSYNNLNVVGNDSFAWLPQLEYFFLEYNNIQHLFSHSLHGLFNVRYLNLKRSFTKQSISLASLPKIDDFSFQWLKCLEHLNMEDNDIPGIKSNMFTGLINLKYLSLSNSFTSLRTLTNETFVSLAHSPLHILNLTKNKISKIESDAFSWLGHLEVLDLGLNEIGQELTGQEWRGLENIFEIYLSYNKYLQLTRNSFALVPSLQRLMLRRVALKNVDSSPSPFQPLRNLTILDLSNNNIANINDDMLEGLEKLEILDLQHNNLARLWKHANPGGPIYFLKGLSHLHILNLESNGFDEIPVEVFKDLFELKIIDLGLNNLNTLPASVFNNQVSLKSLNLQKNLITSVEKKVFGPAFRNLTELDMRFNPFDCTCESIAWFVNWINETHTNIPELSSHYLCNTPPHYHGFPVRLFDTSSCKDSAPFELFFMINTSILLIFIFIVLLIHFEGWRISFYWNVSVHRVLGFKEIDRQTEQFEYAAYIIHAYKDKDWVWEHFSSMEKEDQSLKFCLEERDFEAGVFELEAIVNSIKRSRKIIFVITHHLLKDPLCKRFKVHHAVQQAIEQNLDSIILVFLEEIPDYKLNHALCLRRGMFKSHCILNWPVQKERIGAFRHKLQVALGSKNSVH
Procedure: as §1, §2

TLR2 = TLR2 (Homo sapiens, UniProt O60603); assay: TLR agonist IL-8 production in BEAS2B epithelial cells, TLR2; design: endogenous in cells; host or cells: BEAS2B; conditions: Mycoplasma pneumoniae membranes, 48 h
Chain of TLR2 (O60603 21-784): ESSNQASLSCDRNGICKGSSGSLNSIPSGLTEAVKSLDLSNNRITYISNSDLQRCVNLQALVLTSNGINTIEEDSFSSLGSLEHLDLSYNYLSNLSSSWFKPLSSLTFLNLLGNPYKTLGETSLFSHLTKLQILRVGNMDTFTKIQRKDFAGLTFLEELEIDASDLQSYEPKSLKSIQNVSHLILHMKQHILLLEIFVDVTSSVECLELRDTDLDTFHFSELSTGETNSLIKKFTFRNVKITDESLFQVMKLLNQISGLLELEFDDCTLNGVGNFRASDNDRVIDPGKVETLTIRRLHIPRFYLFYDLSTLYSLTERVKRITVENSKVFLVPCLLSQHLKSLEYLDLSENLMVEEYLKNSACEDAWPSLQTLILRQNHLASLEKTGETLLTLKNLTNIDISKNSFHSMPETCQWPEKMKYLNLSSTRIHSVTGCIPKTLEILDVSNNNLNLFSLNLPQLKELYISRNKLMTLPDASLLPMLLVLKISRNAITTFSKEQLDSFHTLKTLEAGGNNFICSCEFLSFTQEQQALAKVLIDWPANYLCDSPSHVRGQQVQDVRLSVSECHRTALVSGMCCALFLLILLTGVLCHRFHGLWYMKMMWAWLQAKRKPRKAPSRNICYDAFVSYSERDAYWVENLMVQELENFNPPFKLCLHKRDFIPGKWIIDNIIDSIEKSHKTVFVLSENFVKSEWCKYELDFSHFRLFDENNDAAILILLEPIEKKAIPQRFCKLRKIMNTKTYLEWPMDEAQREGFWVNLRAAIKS
Procedure: as §1, §2

TLR6 = target: T3, TLR6 (Homo sapiens, UniProt Q9Y2C9); assay: TLR agonist IL-8 production in BEAS2B epithelial cells, TLR6; conditions: MALP2, 48 h
T3 construct: endogenous in cells; host or cells: BEAS2B
T3 sequence (Q9Y2C9 32-796): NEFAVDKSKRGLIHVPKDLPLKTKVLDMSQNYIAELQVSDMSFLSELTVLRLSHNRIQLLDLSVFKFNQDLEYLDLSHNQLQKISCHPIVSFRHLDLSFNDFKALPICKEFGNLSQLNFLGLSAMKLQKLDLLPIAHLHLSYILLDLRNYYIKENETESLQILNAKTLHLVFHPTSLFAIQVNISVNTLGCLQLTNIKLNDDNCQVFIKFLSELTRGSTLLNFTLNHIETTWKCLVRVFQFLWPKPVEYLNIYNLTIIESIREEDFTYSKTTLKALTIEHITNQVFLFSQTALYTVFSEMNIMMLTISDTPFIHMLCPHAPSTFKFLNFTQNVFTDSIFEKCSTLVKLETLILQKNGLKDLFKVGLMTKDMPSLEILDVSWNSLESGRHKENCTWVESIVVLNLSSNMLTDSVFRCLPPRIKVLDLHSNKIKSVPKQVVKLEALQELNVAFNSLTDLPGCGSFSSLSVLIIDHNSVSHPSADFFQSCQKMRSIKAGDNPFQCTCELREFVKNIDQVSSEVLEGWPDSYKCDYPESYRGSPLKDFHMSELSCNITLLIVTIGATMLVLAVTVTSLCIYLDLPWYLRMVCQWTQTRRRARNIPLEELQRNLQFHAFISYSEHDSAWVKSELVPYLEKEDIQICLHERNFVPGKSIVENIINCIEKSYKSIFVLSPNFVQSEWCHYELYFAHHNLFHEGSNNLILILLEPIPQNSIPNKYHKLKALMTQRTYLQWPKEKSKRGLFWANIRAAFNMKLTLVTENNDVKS
Procedure: as §1, §2

TLR5 = target: T4, TLR5 (Homo sapiens, UniProt O60602); assay: TLR agonist IL-8 production in BEAS2B epithelial cells, TLR5; conditions: flagellin, 48 h
T4 construct: endogenous in cells; host or cells: BEAS2B
T4 sequence (O60602 21-858): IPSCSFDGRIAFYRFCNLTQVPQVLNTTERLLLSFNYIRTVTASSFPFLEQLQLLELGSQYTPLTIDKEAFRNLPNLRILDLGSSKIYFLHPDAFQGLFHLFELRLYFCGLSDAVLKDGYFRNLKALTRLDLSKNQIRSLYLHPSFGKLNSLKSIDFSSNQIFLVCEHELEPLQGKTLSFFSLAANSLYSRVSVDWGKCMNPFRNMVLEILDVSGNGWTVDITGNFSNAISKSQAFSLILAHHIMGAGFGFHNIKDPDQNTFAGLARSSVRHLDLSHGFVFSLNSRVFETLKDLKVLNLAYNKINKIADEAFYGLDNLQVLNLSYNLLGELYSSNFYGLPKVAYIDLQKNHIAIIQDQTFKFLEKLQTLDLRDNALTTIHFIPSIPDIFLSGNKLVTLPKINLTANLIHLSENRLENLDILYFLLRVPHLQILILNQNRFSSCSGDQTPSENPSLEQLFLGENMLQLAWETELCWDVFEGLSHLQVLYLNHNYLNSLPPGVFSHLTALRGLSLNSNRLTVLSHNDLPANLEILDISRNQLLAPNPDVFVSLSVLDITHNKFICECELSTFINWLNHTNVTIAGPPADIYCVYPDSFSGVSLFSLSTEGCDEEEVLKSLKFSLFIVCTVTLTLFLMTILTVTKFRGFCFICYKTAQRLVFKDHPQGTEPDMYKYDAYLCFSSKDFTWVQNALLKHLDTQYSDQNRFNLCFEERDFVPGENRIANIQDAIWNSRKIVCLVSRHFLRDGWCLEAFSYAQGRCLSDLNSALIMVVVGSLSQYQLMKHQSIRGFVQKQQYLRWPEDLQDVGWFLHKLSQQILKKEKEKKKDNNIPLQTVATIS
Procedure: as §1, §2

| Compound | activity of TLR1 (IL-8 production) (TLR1) | activity of TLR3 (IL-8 production) (TLR3) | activity of TLR2 (IL-8 production) (TLR2) | activity of TLR6 (IL-8 production) (TLR6) | activity of TLR5 (IL-8 production) (TLR5) |
| --- | --- | --- | --- | --- | --- |
| CCCCCCCC/C=C\CCCCCCCC(=O)O[C@H](COC(=O)CCCCCCCCCCCCCCC)COP(=O)(O)OCC(O)CO (stereo partly shown) [POPG, palmitoyl-oleoyl-phosphatidylglycerol] | inhibit | inhibit | inhibit | inhibit | not |
| phosphatidylinositol [PI] | inhibit | inhibit | inhibit | inhibit | not |
